Laboratory results: article PMC9312196, “Enzymatic Biosynthesis of Simple Phenolic Glycosides as Potential Anti-Melanogenic Antioxidants” (Antioxidants, 2022)
Where “and” joins values, the source holds several entries; their conditions need not be identical. Equal values may be shown once. Read-outs that look alike come from different tables or passages of the source.

Tests used:
[1] = target: T1, porcine pancreas elastase (Sus scrofa, UniProt P00772); assay: In vitro elastase inhibition with AAAPVN substrate; assay type: biochemical; conditions: read-out: elastase inhibitory IC50
T1 construct: purchased Sigma-Aldrich; host or cells: porcine pancreas
Description: The in vitro inhibitory effects of SPs and their glycosides on elastase activity (known as anti-wrinkle bioactivities) were assessed using porcine pancreas elastase (Sigma-Aldrich). Its synthetic substrate AAAPVN (Sigma-Aldrich) was dissolved in phosphate buffer (pH 8.0, 200 mM). In each well of a 96-well microplate, the above elastase (20 μL) was mixed with the SPs and their glycosides in the phosphate buffer (150 μL) and then pre-incubated at 25 °C for 15 min prior to substrate AAAPVN (30 μL) supplementation.

[2] = target: T2, tyrosinase (mushroom origin) (Agaricus bisporus, UniProt C7FF04); assay: In vitro tyrosinase inhibition with L-tyrosine as substrate; assay type: biochemical; conditions: for IC50: mushroom tyrosinase, L-tyrosine substrate, read-out: tyrosinase inhibitory IC50; for fold higher tyrosinase inhibitory effect than kojic acid: ratio of IC50 values vs kojic acid
T2 construct: purchased Sigma-Aldrich
Description: The in vitro inhibitory effects of SPs and their glycosides towards tyrosinase (Sigma-Aldrich; mushroom origin; 2000 Unit/mL) activities were determined using L-tyrosine as a substrate. Briefly, the reaction mixtures, comprising 100 μL phosphate buffer (pH 6.8, 100 mM), 20 μL of tyrosinase (250 U/mL) and 20 μL of varying concentrations of SPs and their glycosides (in DMSO), were preincubated at 30 °C for 10 min.

[3] = system: intracellular ROS in TBHP-induced B16F10 cells; assay: DCFDA cellular ROS detection assay in TBHP-induced B16F10 cells; assay type: cell-based, murine; conditions: 5.0, 10 and 20 μM tested
Description: The intracellular reactive oxygen species (ROS) level was quantitatively determined using the dichlorofluorescin diacetate (DCFDA) cellular ROS detection assay kit (ab113851, Abcam, Cambridge, UK), according to the manufacturer’s instructions. Briefly, B16F10 cells were seeded in a 24-well plate at a density of 2 × 10^3 cells/well. The cells were washed three times using PBS and subjected to staining with 20 μM DCFDA in PBS for 20 min at 37 °C under dark conditions. After staining, the cells were washed with PBS again and incubated with 50 μM TBHP solution (Sigma-Aldrich, St. Louis, MO, USA). Cells were treated time-dependently (10, 30 min and 1 h) with the indicated concentrations of SPs and their glycosides in 0.1% bovine serum albumin containing culture media after DCFDA incubation. The ROS level was analyzed by a fluorescence microplate reader (SpectraMax Gemini XPS/EM, Molecular Devices, Sunnyvale, CA, USA) set at an excitation wavelength of 485 nm and an emission wavelength of 545 nm. Relative fluorescence intensity of controls was equated to 100%, with treatment conditions estimated proportionally.
The in vitro antioxidant activity of SP aglycones and their corresponding glycosides was evaluated through their DPPH-driven radical scavenging abilities in comparison with a well-known antioxidant, L-ascorbic acid. […] Although the mean IC50 values of HPP2G and HPP2DG appear to be a little lower than those of HPP3G and HPP3DG, respectively, there was, however, no statistically significant difference found within (also between) these glycoside groups. Next, we implemented a DCFDA cell-based ROS detection assay to determine whether the SP aglycones and their glycoside analogs function in vivo as antioxidants against intracellular ROS synthesis in the above-described B16F10 cells or not. The TBHP-induced cells were further incubated with different concentrations (5.0, 10 and 20 μM) of SPs and their glycosides for varied time periods (10, 30 min and 1 h).

[4] = system: recombinant StSPGT glycosyltransferase; assay: Michaelis-Menten kinetics of recombinant StSPGT glycosyl transfer; assay type: biochemical, Streptomyces tenjimariensis ATCC 31603
Text: (§1) To learn more details about the enzymatic function of a recombinant StSPGT, we investigated and determined its bio-catalytic properties using two nucleotide sugars as the glycosyl donor substrates; the production velocities of the corresponding glycosides were plotted against the varied glycosyl donor concentrations, […] with fixed acceptor concentrations. […]
(§2) the pGEM T-Easy vector (Promega, Madison, WI, USA) and transformed into E. coli XL1-Blue strain (Stratagene, La Jolla, CA, USA). The resultant plasmid obtained from was sequenced; the amplified ORF of interest (annotated as StSPGT) was deposited as GenBank Accession No.
The NdeI/XhoI-digested fragment excised from the aforementioned pGEM T-Easy vector was cloned into the same sites of the expression vector pET-28a(+) (Novagen, San Diego, CA, USA) and expressed as an N-terminal fusion protein with an His6 tag in E. coli BL21(DE3) strain (selected with […] kanamycin). After induction using 0.5 mM IPTG (Sigma-Aldrich) followed by an overnight incubation at 22°C, the cells were harvested and then disrupted by ultrasonication. The His6-tagged protein from the lysate was purified with TALON-metal affinity resin (Clontech, Mountain View, CA, USA) equilibrated with 50 mM phosphate buffer (0.3 M NaCl, 20 mM imidazole) and incubated at 4°C for 1 hr. After 5 min of refrigerated centrifuge at 2000 rpm, the resin was introduced into a disposable column and washed with phosphate buffer containing 20 mM imidazole, equivalent to 8 times the amount of the resin. Finally, recombinant […]
imidazole . The protein concentration was determined according to the Bradford method and the purified StSPGT was stored at −20°C prior to enzymatic reactions.
In vitro Enzymatic GT Reactions and Its Kinetic Studies
After dissolving two SP acceptor substrates, including HPP2 and HPP3, in methanol at 100 mM, we diluted them with a reaction buffer solution (50 mM phosphate buffer, 10 mM magnesium chloride and 1 mg/mL bovine serum albumin; pH 7.4) to the final concentration of 1 mM. Then we added 30 μM StSPGT glycosyltransferase along with four different nucleotide-activated glycosyl […]
GT reaction at 30°C for 30 min. After reaction, an equal volume of ethyl acetate was immediately added to quench the reaction. The organic solvent layer was evaporated to dryness at 40°C by […]
vacuum centrifugation (EYELA, Tokyo, Japan), and finally reconstituted in methanol prior to HPLC-tandem mass spectrometric (MS/MS) analysis.
For the determination of the kinetic parameters for each SP acceptor substrate, the concentration of glycosyl donor was fixed at 2 mM, while the concentration of SP was varied from […]

[5] = system: melanin biosynthesis in B16F10 murine melanoma cells; assay: Inhibition of α-MSH-induced cellular melanin biosynthesis in B16F10 cells; assay type: cell-based; conditions: fixed 20 μM treatments, 48 h, 2 μM α-MSH
Description: The inhibitory effects of SPs and their glycosides towards cellular melanin biosynthesis were examined using the above-described B16F10 murine melanoma cells. After 24 h seed cultivation in a 24-well plate, these cells were treated with the indicated concentrations of SPs and their glycosides for a further 48 h in the presence of 2 μM α-melanocyte stimulating hormone (α-MSH, Sigma-Aldrich). After washing twice with chilled Dulbecco’s PBS supplemented with calcium chloride and magnesium chloride, the resulting cells were treated with trypsin-EDTA solution (Sigma-Aldrich) to recover melanoma cells. After centrifugation at 1000× […] for 3 min, the cell pellet recovered was dissolved in 100 μL of 1 M NaOH solution (containing 10% DMSO) at 55 °C for 1 h. The melanin content was determined by the absorbance at 405 nm using a microplate reader according to the calibration curve obtained from melanin (Sigma-Aldrich) standards, and melanin synthesis inhibitory activities were expressed as the percentage inhibition of cellular melanin synthesis in the above assay; α-arbutin was used as positive control, while DMSO only was used as negative control.

[6] = DPPH free radical scavenging assay (in vitro antioxidant activity); conditions: 100 μM DPPH, 30 °C, 15 min
Description: DPPH (1,1-diphenyl-2-picryl-hydrazyl-hydrate) free radical scavenging assay was employed for determining the in vitro antioxidant activity of SP aglycones and their generated glycosides; L-ascorbic acid was utilized as a positive control whereas DMSO only was used as negative control. The antioxidant activities were expressed as IC50 value (as the concentration of an antioxidant at which 50% of inhibition of free radicals). In brief, 1.9 mL of the 100 μM DPPH reagent (in MeOH) was added into 0.1 mL of each sample diluted within 0.1 to 2 mM range (0.1, 0.2, 0.5, 1.0 and 2.0 mM dissolved in DMSO). After being mixed well by shaking for 5 s, the mixtures were then incubated at 30 °C for 15 min, followed by measuring absorbance with a microplate reader at 515 nm.

[7] = set-up: method as in PMID 35453457; conditions: read-out: DPPH radical scavenging IC50; cited from earlier work
StSPGT [8] = system: T3, StSPGT; assay: Michaelis-Menten kinetics of glycosyl transfer by HPLC-MS/MS product quantitation, donor varied 0.1-1.2 mM at fixed 1.0 mM acceptor HPP2, 50 mM phosphate pH 7.4, 10 mM MgCl2, 30 °C.; assay type: biochemical; conditions: SD, n = 3
T3 construct: recombinant, N-terminal His6 tag, pET-28a(+), expressed in E. coli BL21(DE3)
Text: as §1, §2
(§3) The NdeI/XhoI-digested fragment excised from the aforementioned pGEM T-Easy vector was cloned into the same sites of the expression vector pET-28a(+) (Novagen, San Diego, CA, USA) and expressed as an N-terminal fusion protein with an His6 tag in E. coli BL21(DE3) strain (selected with […] kanamycin). After induction using 0.5 mM IPTG (Sigma-Aldrich) followed by an overnight incubation at 22°C, the cells were harvested and then disrupted by ultrasonication. […]
(§4) imidazole . The protein concentration was determined according to the Bradford method and the purified StSPGT was stored at −20°C prior to enzymatic reactions. […]

StSPGT [9] = system: T3, StSPGT; assay: Michaelis-Menten kinetics of glycosyl transfer by HPLC-MS/MS product quantitation, donor varied 0.1-1.2 mM at fixed 1.0 mM acceptor HPP3, 50 mM phosphate pH 7.4, 10 mM MgCl2, 30 °C.; assay type: biochemical; conditions: SD, n = 3
Text: as §1, §2, §3, §4

[10] = system: B16F10 murine melanoma cells; assay: MTT cytotoxicity assay on B16F10 cells; assay type: cell-based; conditions: 48 h treatment, highest 20 mM concentration
Description: The cytotoxic effects of SP aglycones and their glycosides on B16F10 cells was determined using a conventional MTT assay. B16F10 murine melanoma cells were routinely maintained in Dulbecco’s modified Eagle’s medium (DMEM) (Gibco, New York, NY, USA) supplemented with 10% heat-inactivated fetal bovine serum (Gibco), 100 units/mL penicillin and 100 μg/mL streptomycin (Gibco) at 37 °C under humidified 5% CO2 atmosphere. For the assay, these B16F10 cells were seeded in advance in 24-well plastic tissue culture plates at a density of 2 × 10^3 cells/well. After 24 h cultivation, the cells within individual wells were treated with the indicated concentrations of SPs and their glycosides for 48 h. The cells were incubated with MTT solution for additional 4 h in the dark, and the reduced formazan crystals were then dissolved in DMSO; the DMSO percentage in the media was kept below 0.5%. The resulting mixture was transferred to a 96-well microplate, and then the absorbance was measured at 570 nm using a SpectraMax microplate reader (Molecular Devices, Sunnyvale, CA, USA).
[…]. The treatment concentrations of SP aglycones and their glycosides for the bioassays were selected in advance by monitoring their cytotoxicity against the B16F10 murine melanoma cell line using α-arbutin as the reference. […]

[11] = system: B16F10 murine melanoma cells; set-up: method as in PMID 28467382; conditions: concentrations less than 5.0 mM; cited from earlier work

T2 sequence (C7FF04 1-392 limits assumed): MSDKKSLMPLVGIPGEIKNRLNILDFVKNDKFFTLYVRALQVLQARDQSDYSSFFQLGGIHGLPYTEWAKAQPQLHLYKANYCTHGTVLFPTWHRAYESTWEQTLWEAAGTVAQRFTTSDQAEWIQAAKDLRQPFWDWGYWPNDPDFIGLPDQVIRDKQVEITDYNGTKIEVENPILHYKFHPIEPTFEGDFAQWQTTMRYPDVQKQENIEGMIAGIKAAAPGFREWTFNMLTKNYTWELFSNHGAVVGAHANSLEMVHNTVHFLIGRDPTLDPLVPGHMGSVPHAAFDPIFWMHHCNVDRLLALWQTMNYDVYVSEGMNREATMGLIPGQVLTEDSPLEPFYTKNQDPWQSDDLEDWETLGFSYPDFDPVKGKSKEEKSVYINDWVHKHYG
T1 sequence (P00772 27-266): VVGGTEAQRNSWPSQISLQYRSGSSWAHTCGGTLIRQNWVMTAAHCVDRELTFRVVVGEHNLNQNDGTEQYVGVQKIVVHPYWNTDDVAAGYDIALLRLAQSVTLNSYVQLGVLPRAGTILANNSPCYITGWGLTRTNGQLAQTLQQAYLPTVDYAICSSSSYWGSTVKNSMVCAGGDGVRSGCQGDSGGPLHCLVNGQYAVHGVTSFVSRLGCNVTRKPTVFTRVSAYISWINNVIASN

Row | IC50 [1] [µM] | IC50 [2] [µM] | IC50 [6] [µM] | Structure (SMILES) | maximal ROS-scavenging activity [3] [%] | inhibition of α-MSH-induced intracellular melanin biosynthesis [5] | other results
1 | 25.3 | 13.8 | – | CC(Cc1ccc(O)cc1)O[C@@H]1C[C@@H](O)[C@H](O)[C@@H](CO)O1 (stereo partly drawn) [HPP2DG, hydroxyphenyl-2-propanoyl-O-α-2″-deoxyglucoside] | 54.3 | – | –
2 | 22.1 | 14.8 | – | CC(Cc1ccc(O)cc1)O[C@H]1O[C@H](CO)[C@@H](O)[C@H](O)[C@H]1O (stereo partly drawn) [HPP2G, hydroxyphenyl-2-propanoyl-O-α-glucoside] | 52.0 | – | –
3 | 95.3 | 11.6 | 18.5 | CC(O)Cc1ccc(O)cc1 (stereo not shown) [HPP2] | – | 50.3% | kcat ([4]; donor TDP-2′dGlc): 0.2155 ± 0.0363 s⁻¹; kcat ([4]; donor UDP-Glc): 0.3235 s⁻¹ and 0.3235 ± 0.0537 s⁻¹; fold higher tyrosinase inhibitory effect than kojic acid [2]: about 6.6 fold
4 | 30.7 | 30.9 | – | CCC(O[C@@H]1C[C@@H](O)[C@H](O)[C@@H](CO)O1)c1ccc(O)cc1 (stereo partly shown) [HPP3DG] | 45.7 | – | –
5 | 31.5 | 29.1 | – | CCC(O[C@H]1O[C@H](CO)[C@@H](O)[C@H](O)[C@H]1O)c1ccc(O)cc1 (stereo partly shown) [HPP3G] | 48.9 | – | –
6 | 99.1 | 23.4 | 19.3 | CCC(O)c1ccc(O)cc1 (stereo not shown) [HPP3] | – | 21.7% | kcat ([4]; donor TDP-2′dGlc): 0.1865 ± 0.0372 s⁻¹; kcat ([4]; donor UDP-Glc): 0.2812 s⁻¹ and 0.2812 ± 0.0497 s⁻¹; fold higher tyrosinase inhibitory effect than kojic acid [2]: ~3.3 fold
7 | – | – | 23 | O=C1O[C@H]([C@@H](O)CO)C(O)=C1O [L-ascorbic acid, reference compound] | – | – | IC50 [7]: 22 µM
8 | – | – | – | Cc1cn([C@H]2C[C@H](O)[C@@H](COP(=O)(O)OP(=O)(O)O[C@@H]3C[C@@H](O)[C@H](O)[C@@H](CO)O3)O2)c(=O)[nH]c1=O [TDP-2′dGlc, thymidine diphosphate-2′-deoxyglucose] | – | – | Km (StSPGT [8]): 0.41 ± 0.07 mM; Km (StSPGT [9]): 0.5 ± 0.09 mM
9 | – | 10.3 | – | Oc1ccc(O)cc1 [hydroquinone, reference compound] | – | – | –
10 | – | – | – | OC[C@H]1O[C@H](Oc2ccc(O)cc2)[C@H](O)[C@@H](O)[C@@H]1O [α-arbutin] | – | about 20.3% | change of cell viability [10]: less than 5 % of the control; cytotoxicity for the B16F10 cells [11]: no cytotoxicity
